# Experimental data taken from patent publication US20240158392A1 (Janssen Biotech, Inc., priority 2021, published 2024).
# Target: SIK2 (Homo sapiens, UniProt Q9H0K1)
# Assay: SIK2 Enzymatic Assay High Version 2 (High ATP)
# Assay type: biochemical
# Conditions: not given
# How it was run: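 At room temperature, enzyme (6 nM, 2× final) was preincubated with compound for 30 min, then 6 mM ATP and 400 μM HDAC5tide (both 2× final) were added for 2 h. ADP formed was measured by ADP-Glo Max (2 h reagent, 1 h detection) using luminescence.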
# SIK2, sequence (Q9H0K1 whole entry, species assumed): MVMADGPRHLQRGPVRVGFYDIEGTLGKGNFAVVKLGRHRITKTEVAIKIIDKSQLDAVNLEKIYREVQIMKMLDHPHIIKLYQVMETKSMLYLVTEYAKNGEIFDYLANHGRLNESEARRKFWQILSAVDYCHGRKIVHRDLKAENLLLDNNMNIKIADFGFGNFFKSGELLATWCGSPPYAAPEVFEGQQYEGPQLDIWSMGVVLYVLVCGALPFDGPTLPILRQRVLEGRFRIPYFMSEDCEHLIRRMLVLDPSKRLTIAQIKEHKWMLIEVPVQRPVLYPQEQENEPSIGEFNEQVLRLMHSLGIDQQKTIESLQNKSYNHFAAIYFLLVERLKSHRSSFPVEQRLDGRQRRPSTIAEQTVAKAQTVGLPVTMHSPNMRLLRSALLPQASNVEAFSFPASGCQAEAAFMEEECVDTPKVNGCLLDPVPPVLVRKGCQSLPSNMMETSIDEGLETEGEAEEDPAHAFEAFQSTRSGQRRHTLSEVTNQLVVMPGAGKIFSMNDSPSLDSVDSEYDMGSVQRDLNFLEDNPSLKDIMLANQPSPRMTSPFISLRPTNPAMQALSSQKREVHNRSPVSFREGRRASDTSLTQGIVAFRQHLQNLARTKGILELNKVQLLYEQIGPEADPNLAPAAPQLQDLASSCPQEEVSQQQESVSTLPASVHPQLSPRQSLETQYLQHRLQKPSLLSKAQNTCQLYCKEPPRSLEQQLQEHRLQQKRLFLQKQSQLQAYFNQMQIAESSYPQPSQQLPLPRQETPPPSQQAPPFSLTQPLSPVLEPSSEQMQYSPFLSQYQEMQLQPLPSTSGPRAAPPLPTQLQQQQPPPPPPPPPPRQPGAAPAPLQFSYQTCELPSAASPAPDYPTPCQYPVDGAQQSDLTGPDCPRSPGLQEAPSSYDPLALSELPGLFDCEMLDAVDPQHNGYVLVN
row,SMILES,IC50
1,"Cc1cc(-c2ccn3nc(Nc4cn(C)nc4C(O)C(F)(F)F)cc3c2)c(O[C@H]2C[C@H]3COC[C@@H](C2)N3C)cn1 (stereo partly drawn) [Example 422, 2,2,2-trifluoro-1-[1-methyl-4-[[5-[2-methyl-5-[[(1S,5R,7s)-9-methyl-3-oxa-9-azabicyclo[3.3.1]nonan-7-yl]oxy]-4-pyridyl]pyrazolo[1,5-a]pyridin-2-yl]amino]pyrazol-3-yl]ethanol]",< 0.000847 µM
2,"Cc1cc(-c2ccn3nc(Nc4ccn(C)n4)cc3c2)c(O[C@H]2C[C@H]3COC[C@@H](C2)N3C)cn1 [Example 423, 5-[2-methyl-5-[[(1S,5R,7s)-9-methyl-3-oxa-9-azabicyclo[3.3.1]nonan-7-yl]oxy]-4-pyridyl]-N-(1-methylpyrazol-3-yl)pyrazolo[1,5-a]pyridin-2-amine]",0.0103 µM
3,"Cc1cc(-c2ccn3nc(Nc4ccn(C)n4)cc3c2)c(OC[C@H]2CNCCO2)cn1 [Example 429, 5-[2-methyl-5-[[(2R)-morpholin-2-yl]methoxy]-4-pyridyl]-N-(1-methylpyrazol-3-yl)pyrazolo[1,5-a]pyridin-2-amine]",0.0122 µM
4,"CC#Cc1cc(-c2ccn3nc(NC(=O)C4CC4)cc3c2)c(O[C@H]2C[C@H]3COC[C@@H](C2)N3)cn1 [Example 436, N-[5-[5-[[(1S,5R)-3-oxa-9-azabicyclo[3.3.1]nonan-7-yl]oxy]-2-prop-1-ynyl-4-pyridyl]pyrazolo[1,5-a]pyridin-2-yl]cyclopropanecarboxamide]",< 0.000847 µM

# Same assay, conditions: enzyme 6 nM, 6 mM ATP and 400 μM HDAC5tide (each 2× final concentration); 30 minutes pre-incubation, 2 hours; ADP-Glo Max luminescence; read-out: SIK2 high ATP IC50 (μM) (Test Example 2)
row,SMILES,IC50
1,"Cc1cc(-c2ccn3nc(Nc4ccc(C(F)(F)F)cn4)cc3c2)c(OC[C@@H]2CNCCO2)cn1 [Example 424, 5-[2-methyl-5-[[(2S)-morpholin-2-yl]methoxy]-4-pyridyl]-N-[5-(trifluoromethyl)-2-pyridyl]pyrazolo[1,5-a]pyridin-2-amine]",0.00766 µM
2,"Cc1ccc(Nc2cc3cc(-c4cc(C)ncc4OC[C@@H]4CNCCO4)ccn3n2)nc1 [Example 425, 5-[2-methyl-5-[[(2S)-morpholin-2-yl]methoxy]-4-pyridyl]-N-(5-methyl-2-pyridyl)pyrazolo[1,5-a]pyridin-2-amine]",0.00568 µM
3,"Cc1cc(-c2ccn3nc(Nc4cccc(C)n4)cc3c2)c(OC[C@@H]2CNCCO2)cn1 [Example 426, 5-[2-methyl-5-[[(2S)-morpholin-2-yl]methoxy]-4-pyridyl]-N-(6-methyl-2-pyridyl)pyrazolo[1,5-a]pyridin-2-amine]",0.00403 µM
4,"Cc1cc(-c2ccn3nc(Nc4cnccn4)cc3c2)c(OC[C@H]2CNCCO2)cn1 [Example 430, 5-[2-methyl-5-[[(2R)-morpholin-2-yl]methoxy]-4-pyridyl]-N-pyrazin-2-yl-pyrazolo[1,5-a]pyridin-2-amine]",0.00801 µM
5,"Cc1cc(-c2ccn3nc(Nc4cnccn4)cc3c2)c(OC[C@@H]2CNCCO2)cn1 [Example 431, 5-[2-methyl-5-[[(2S)-morpholin-2-yl]methoxy]-4-pyridyl]-N-pyrazin-2-yl-pyrazolo[1,5-a]pyridin-2-amine]",0.00194 µM
6,"CC#Cc1cc(-c2ccn3nc(NC(=O)C4CC4)cc3c2)c(OCC2(N)COC2)cn1 [Example 433, N-[5-[5-[(3-aminooxetan-3-yl)methoxy]-2-prop-1-ynyl-4-pyridyl]pyrazolo[1,5-a]pyridin-2-yl]cyclopropanecarboxamide]",< 0.000847 µM
7,"CC#Cc1cc(-c2ccn3nc(NC(=O)C4CC4)cc3c2)c(OCC2(F)CNC2)cn1 [Example 434, N-[5-[5-[(3-fluoroazetidin-3-yl)methoxy]-2-prop-1-ynyl-4-pyridyl]pyrazolo[1,5-a]pyridin-2-yl]cyclopropanecarboxamide]",< 0.000847 µM
8,"CC#Cc1cc(-c2ccn3nc(NC(=O)C4CC4)cc3c2)c(O[C@H]2C[C@H](N)C2)cn1 [Example 435, N-(5-(5-((1r,3r)-3-aminocyclobutoxy)-2-(prop-1-yn-1-yl)pyridin-4-yl)pyrazolo[1,5-a]pyridin-2-yl)cyclopropanecarboxamide]",< 0.000847 µM
